For 13 compounds, IC50 results are on record in ChEMBL document CHEMBL5247620, “Lupane derivatives containing various aryl substituents in the position 3 have selective cytostatic effect in leukemic cancer cells including resistant phenotypes” (Eur J Med Chem, 2022).

pIC50: −log10 of the molar value. Bounds are passed on as bounds.

Series [1] has as its system CCRF-CEM. The series is described as follows: Cytotoxicity against human CCRF-CEM cells assessed as inhibition of cell growth incubated for 72 hrs by MTS assay. Type of series: functional, cell-based.
For series [2], the system named is CEM-DNR. The series can be described thus: Cytotoxicity against human CEM-DNR cells assessed as inhibition of cell growth incubated for 72 hrs by MTS assay. The series is classed as functional, cell-based. For orientation: Tetrazolium assays rely on reduction of a dye to a coloured formazan, in cell work by metabolically active cells.
Series [3] concerns K562. The series can be described thus: Cytotoxicity against human K562 cells assessed as inhibition of cell growth incubated for 72 hrs by MTS assay. Type of series: functional, cell-based. The conditions noted are these: K562, 72 h.
A short description of series [4]: Cytotoxicity against human K562-Tax cells assessed as inhibition of cell growth incubated for 72 hrs by MTS assay. Type of series: functional, cell-based.
For series [5], the system named is A549. The series can be described thus: Cytotoxicity against human A549 cells assessed as inhibition of cell growth incubated for 72 hrs by MTS assay. Type of series: functional, cell-based. The conditions noted are these: A549, 72 h.
Series [6] relates to HCT-116. The series can be described thus: Cytotoxicity against human HCT-116 cells assessed as inhibition of cell growth incubated for 72 hrs by MTS assay. The series is classed as functional, cell-based. The conditions noted are these: HCT-116, 72 h.
Series [7] in a line: Cytotoxicity against human p53HCT116 cells assessed as inhibition of cell growth incubated for 72 hrs by MTS assay. The series is classed as functional, cell-based. Particulars: p53HCT116, 72 h.
The subject of series [8] is U2OS. The series is described as follows: Cytotoxicity against human U2OS cells assessed as inhibition of cell growth incubated for 72 hrs by MTS assay. Type of series: functional, cell-based.
Series [9] is described as follows: Cytotoxicity against human BJ cells assessed as inhibition of cell growth incubated for 72 hrs by MTS assay. The series is classed as toxicity, cell-based.
The nature of series [10]: Cytotoxicity against human MRC5 cells assessed as inhibition of cell growth incubated for 72 hrs by MTS assay. The series is classed as toxicity, cell-based.

As a reminder, the pIC50 is the negative decadic logarithm of the IC50, by convention in mol/L. The IC50 is the concentration that inhibits the measured activity by half. On to `C=C(C)[C@@H]1CC[C@]2(C(=O)O)CC[C@]3(C)[C@H](CC[C@@H]4[C@@]5(C)CC=C(c6ccc(OC)cc6)C(C)(C)[C@@H]5CC[C@]43C)[C@@H]12`, for which the pIC50 is 4.64 in series [1]; 4.30 in series [2]; 4.30 in series [3]; 4.30 in series [4]; 4.37 in [5]; 4.30 in series [6]. For the same compound, the pIC50 in series [7] was 4.30; in [8] it was 4.38. The IC50 at 72 h in [9] came to 50 µM; in [10], 46 µM.

Take `C=C(C)[C@@H]1CC[C@]2(C(=O)O)CC[C@]3(C)[C@H](CC[C@@H]4[C@@]5(C)CC=C(c6ccccc6C(=O)OC)C(C)(C)[C@@H]5CC[C@]43C)[C@@H]12`: the pIC50 is 4.82 in series [1]; 4.57 in [2]; 4.59 in series [3]; 4.54 in [4]; 4.59 in [5]; 4.57 in series [6]. For the same compound, the pIC50 was 4.64 in series [7] and 4.60 in [8]. Besides, the IC50 at 72 h in [9] turned out to be 38 µM; in series [10], 22 µM.

With `C=C(C)[C@@H]1CC[C@]2(C(=O)O)CC[C@]3(C)[C@H](CC[C@@H]4[C@@]5(C)CC=C(c6cccc([N+](=O)[O-])c6)C(C)(C)[C@@H]5CC[C@]43C)[C@@H]12`, the pIC50 was 4.74 in series [1]; 4.37 in series [2]; 4.35 in series [3]; 4.62 in series [4]; 4.47 in series [5]; 4.32 in series [6]. The pIC50 in series [7] is 4.33; in [8], 4.34. Further, the values for the IC50 at 72 h in series [9] and in series [10] were 50 µM and 48 µM, respectively.

On to `C=C(C)[C@@H]1CC[C@]2(C(=O)O)CC[C@]3(C)[C@H](CC[C@@H]4[C@@]5(C)CC=C(c6ccccc6O)C(C)(C)[C@@H]5CC[C@]43C)[C@@H]12`, for which the pIC50 is 5.00 in series [1]; 4.52 in [2]; under 4.30 in series [3]; 4.82 in series [4]; 4.39 in [5]; 4.52 in series [6]. For the same compound, the negative-log IC50 (pIC50) was under 4.30 in series [7] and 4.59 in [8]. In addition, the half-inhibitory concentration (IC50) at 72 h in series [9] was over 50 µM; in series [10] it was 31 µM.

Take `C=C(C)[C@@H]1CC[C@]2(C(=O)O)CC[C@]3(C)[C@H](CC[C@@H]4[C@@]5(C)CC=C(c6ccc(C(=O)OC)cc6)C(C)(C)[C@@H]5CC[C@]43C)[C@@H]12`: the pIC50 in series [1] was 4.34; in series [2], 4.33; in series [3], 4.32; in series [4] it was 5.14; in series [5], 4.33; in [6], 4.33. In addition, the pIC50 is 4.33 in series [7] and 4.34 in series [8]. Besides, the IC50 at 72 h was 47 µM in series [9] and 46 µM in [10].

Consider `C=C(C)[C@@H]1CC[C@]2(C(=O)O)CC[C@]3(C)[C@H](CC[C@@H]4[C@@]5(C)CC=C(c6cccc(OC)c6)C(C)(C)[C@@H]5CC[C@]43C)[C@@H]12`, for which the pIC50 is 4.82 in series [1]; 4.51 in series [2]; under 4.30 in series [3]; 4.54 in series [4]; 4.35 in series [5]; 4.51 in [6]. The results for the pIC50 in series [7] and in [8] were under 4.30 and 4.46, respectively. Besides, the IC50 at 72 h in series [9] and in series [10] was over 50 µM each time.

On to `C=C(C)[C@@H]1CC[C@]2(C(=O)O)CC[C@]3(C)[C@H](CC[C@@H]4[C@@]5(C)CC=C(c6ccc([N+](=O)[O-])cc6)C(C)(C)[C@@H]5CC[C@]43C)[C@@H]12`, for which the pIC50 is 4.59 in series [1]; under 4.30 in series [2]; under 4.30 in series [3]; under 4.30 in series [4]; under 4.30 in series [5]; under 4.30 in series [6]. Besides, the negative logarithm of the IC50 (pIC50) in series [7] was under 4.30; in series [8], 4.38. The IC50 at 72 h in [9] and in [10] was over 50 µM throughout.

For the compound `C=C(C)[C@@H]1CC[C@]2(C(=O)O)CC[C@]3(C)[C@H](CC[C@@H]4[C@@]5(C)CC=C(c6ccccc6N)C(C)(C)[C@@H]5CC[C@]43C)[C@@H]12`, the pIC50 in [1] was 4.96; in series [2] it was 4.34; in series [3] it was 4.34; in [4] it was 4.36; in series [5], 4.62; in [6], 4.34. The pIC50 was 4.74 in series [7] and 4.57 in series [8]. The IC50 at 72 h in [9] and in series [10] was over 50 µM in each case.

On to `C=C(C)[C@@H]1CC[C@]2(C(=O)O)CC[C@]3(C)[C@H](CC[C@@H]4[C@@]5(C)CC=C(c6cccc(C(=O)OC)c6)C(C)(C)[C@@H]5CC[C@]43C)[C@@H]12`, for which the pIC50 was 4.77 in series [1]; under 4.30 in [2]; under 4.30 in series [3]; 4.37 in [4]; under 4.30 in series [5]; 4.30 in [6]. Besides, the pIC50 in series [7] was 4.39; in series [8], 5.06. Further, the IC50 at 72 h in series [9] was over 50 µM; in series [10], 44 µM.

For `C=C(C)[C@@H]1CC[C@]2(C(=O)OCc3ccccc3)CC[C@]3(C)[C@H](CC[C@@H]4[C@@]5(C)CC=C(OS(=O)(=O)C(F)(F)F)C(C)(C)[C@@H]5CC[C@]43C)[C@@H]12`, the pIC50 in series [1] is 4.85; in series [2], 4.66; in series [3], 4.64; in series [4], 4.74; in series [5] it was 4.70; in series [6] it was 4.66. In addition, the negative logarithm of the IC50 (pIC50) in [7] and in series [8] was 4.54 in each case. Also, the results for the concentration for half-maximal inhibition (IC50) at 72 h in series [9] and in [10] were 40 µM and 27 µM, respectively.

In the case of `C=C(C)[C@@H]1CC[C@]2(C(=O)O)CC[C@]3(C)[C@H](CC[C@@H]4[C@@]5(C)CC=C(c6cccc(C(F)(F)F)c6)C(C)(C)[C@@H]5CC[C@]43C)[C@@H]12`, the pIC50 was 4.72 in [1]; 4.43 in [2]; under 4.30 in [3]; 4.52 in series [4]; 4.34 in series [5]; 4.43 in series [6]. The pIC50 in series [7] was under 4.30; in series [8], 4.35. Also, the figures for the IC50 at 72 h in [9] and in [10] were over 50 µM and 50 µM, respectively.

For the compound `C=C(C)[C@@H]1CC[C@]2(C(=O)O)CC[C@]3(C)[C@H](CC[C@@H]4[C@@]5(C)CC=C(c6ccccc6OC)C(C)(C)[C@@H]5CC[C@]43C)[C@@H]12`, the pIC50 was 4.80 in [1]; 4.62 in series [2]; 4.52 in [3]; 4.64 in series [4]; 4.38 in series [5]; 4.62 in [6]. In addition, the negative logarithm of the IC50 (pIC50) was 4.64 in series [7] and 4.55 in [8]. For the same compound, the half-maximal inhibitory concentration (IC50) at 72 h in series [9] worked out at 48 µM; in series [10] it was 27 µM.

Consider `C=C(C)[C@@H]1CC[C@]2(C(=O)O)CC[C@]3(C)[C@H](CC[C@@H]4[C@@]5(C)CC=C(c6ccc(N)cc6)C(C)(C)[C@@H]5CC[C@]43C)[C@@H]12`, for which the pIC50 in series [1] was 5.42; in [2] it was 4.96; in series [3] it was 4.77; in [4] it was 4.72; in series [5], 4.59; in series [6] it was 4.60. Moreover, the pIC50 was 4.62 in series [7] and 4.66 in series [8]. Further, the IC50 at 72 h in [9] and in series [10] was over 50 µM throughout.
